According to patent US8932597B2 (priority 2008, dated 2015):

Legend:
[1] = tested on: 14C2 antibody; format: binding
[2] = tested on: 2N9 control antibody; format: binding
[3] = tested on: mAb 8i10; format: binding, human
[4] = tested on: mAb 23K12; format: binding, human
[5] = tested on: HuM2e antibody 8I10; format: binding, human
[6] = tested on: HuM2e antibody 23K12; format: binding, human

NEWGCRCNDSSD [CM12]
Binding activity to truncated M2 peptides, ELISA absorbance at 450 nm, 14C2 [1]: 0.27 | Binding activity to truncated M2 peptides, ELISA absorbance at 450 nm, 2N9 [2]: 0.14 | Binding activity to truncated M2 peptides, ELISA absorbance at 450 nm, 8i10 [3]: 0.14 | Binding activity to truncated M2 peptides, ELISA absorbance at 450 nm, 23K12 [4]: 0.39

CSLLTECGSLLTCV (epitope peptide) [SEQ ID NO: 463]
Binding to 8I10 (in words) [5]: very best specific binder | Binding to 23K12 (in words) [6]: very best specific binder

SLLTEVETPIRNEWGC [NM16]
Binding activity to truncated M2 peptides, ELISA absorbance at 450 nm, 14C2 [1]: 3.90 | Binding activity to truncated M2 peptides, ELISA absorbance at 450 nm, 2N9 [2]: 0.09 | Binding activity to truncated M2 peptides, ELISA absorbance at 450 nm, 8i10 [3]: 0.29 | Binding activity to truncated M2 peptides, ELISA absorbance at 450 nm, 23K12 [4]: 0.62

LLTEVETPIRNEWGCR [M16]
Binding activity to truncated M2 peptides, ELISA absorbance at 450 nm, 14C2 [1]: 3.94 | Binding activity to truncated M2 peptides, ELISA absorbance at 450 nm, 2N9 [2]: 0.09 | Binding activity to truncated M2 peptides, ELISA absorbance at 450 nm, 8i10 [3]: 0.09 | Binding activity to truncated M2 peptides, ELISA absorbance at 450 nm, 23K12 [4]: 0.21

VETPIRNEWGCR [M12]
Binding activity to truncated M2 peptides, ELISA absorbance at 450 nm, 14C2 [1]: 0.15 | Binding activity to truncated M2 peptides, ELISA absorbance at 450 nm, 2N9 [2]: 0.09 | Binding activity to truncated M2 peptides, ELISA absorbance at 450 nm, 8i10 [3]: 0.09 | Binding activity to truncated M2 peptides, ELISA absorbance at 450 nm, 23K12 [4]: 0.20

IRNEWGCRCNDSSD [CM14]
Binding activity to truncated M2 peptides, ELISA absorbance at 450 nm, 14C2 [1]: 0.23 | Binding activity to truncated M2 peptides, ELISA absorbance at 450 nm, 2N9 [2]: 0.13 | Binding activity to truncated M2 peptides, ELISA absorbance at 450 nm, 8i10 [3]: 0.14 | Binding activity to truncated M2 peptides, ELISA absorbance at 450 nm, 23K12 [4]: 0.36

SLLTEVETPIRN [NM12]
Binding activity to truncated M2 peptides, ELISA absorbance at 450 nm, 14C2 [1]: 0.20 | Binding activity to truncated M2 peptides, ELISA absorbance at 450 nm, 2N9 [2]: 0.09 | Binding activity to truncated M2 peptides, ELISA absorbance at 450 nm, 8i10 [3]: 0.10 | Binding activity to truncated M2 peptides, ELISA absorbance at 450 nm, 23K12 [4]: 0.24

SLLTEVETPIRNEWGCR [NM17]
Binding activity to truncated M2 peptides, ELISA absorbance at 450 nm, 14C2 [1]: 3.99 | Binding activity to truncated M2 peptides, ELISA absorbance at 450 nm, 2N9 [2]: 0.10 | Binding activity to truncated M2 peptides, ELISA absorbance at 450 nm, 8i10 [3]: 0.26 | Binding activity to truncated M2 peptides, ELISA absorbance at 450 nm, 23K12 [4]: 0.58

SLLTEVE [NM7]
Binding activity to truncated M2 peptides, ELISA absorbance at 450 nm, 14C2 [1]: 0.14 | Binding activity to truncated M2 peptides, ELISA absorbance at 450 nm, 2N9 [2]: 0.08 | Binding activity to truncated M2 peptides, ELISA absorbance at 450 nm, 8i10 [3]: 0.10 | Binding activity to truncated M2 peptides, ELISA absorbance at 450 nm, 23K12 [4]: 0.20
